From patent US11103493B2, “Substituted pyridinyl compounds as indoleamine 2,3-dioxygenase (IDO) inhibitors” (Merck Sharp & Dohme Corp., priority 2017, dated 2021)

What follows are compounds tested against T1, IDO1 (Homo sapiens, UniProt P14902) (assay: IDO1 Cellular Assay in HeLa Cells Stimulated with IFNγ). Settings: IFNγ 100 ng/mL, 300 uM L-tryptophan, about 48 hours incubation, fluorescence readout, read-out: IDO1 HeLa Cell Assay, IC50.
Type: cell-based
Protocol: IDO1 Cellular Assay in HeLa Cells Stimulated with IFNγ
HeLa cells were cultured in complete HeLa culture medium (90% EMEM, 10% heat-inactivated fetal bovine serum) and expanded to about 1×10^9 cells. The cells were then collected and frozen down at 1×10^7 cells/vial in 1 mL frozen medium (90% complete HeLa culture medium, 10% DMSO).
Compounds to be tested were serially diluted in ten 3-fold steps in DMSO starting from 10 mM DMSO stocks in Echo low volume plate(s).
Frozen HeLa cells were thawed and transferred into HeLa assay medium (99% complete HeLa culture medium, 1% Pen/Strep) with 20 mL medium/vial of cells. The cells were spun down at 250 g in a table top centrifuge for 5 min and suspended in same volume of HeLa assay medium. The cells were then counted and adjusted to a density of 2×10^5 cells/mL in HeLa assay medium. Sterile L-tryptophan were added to the cells with final concentration of 300 uM L-tryptophan. A small aliquot (2 mL/plate) of HeLa cells were set aside and were not treated with IFNγ, to serve as the Max-E control.
HeLa cells with and without IFNγ were dispensed to the respective wells of 384-well assay plates containing the compounds. The plates were incubated for about 48 hours at a 37° C., 5% CO2 incubator. Afterwards, 12 μL of 0.5 M methyl isonipecotate in dimethyl sulfoxide were added into each well and the plates were sealed and incubated at 37° C. without CO2 overnight. The plates were centrifuged for 1 min at 200×g. The resulting fluorescence was measured in a Spectramax plate reader (Molecular Devices) with a 400 nm excitation filter and a 510 nm emission filter.
Potencies were calculated by […] least squares fit to the four parameter logistic IC50 equation.

T1 sequence (P14902 whole entry): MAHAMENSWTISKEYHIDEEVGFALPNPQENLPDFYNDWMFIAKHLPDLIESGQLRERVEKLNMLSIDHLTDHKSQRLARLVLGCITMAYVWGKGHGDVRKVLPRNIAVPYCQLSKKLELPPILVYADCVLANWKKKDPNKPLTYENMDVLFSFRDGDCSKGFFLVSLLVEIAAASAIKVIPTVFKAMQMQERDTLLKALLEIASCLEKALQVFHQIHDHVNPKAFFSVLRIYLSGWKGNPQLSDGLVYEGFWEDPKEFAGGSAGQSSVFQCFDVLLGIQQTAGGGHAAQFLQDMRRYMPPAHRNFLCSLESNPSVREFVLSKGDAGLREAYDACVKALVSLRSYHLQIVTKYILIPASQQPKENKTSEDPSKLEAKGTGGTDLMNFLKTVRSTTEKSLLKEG

| SMILES | IC50 |
| --- | --- |
| O=C(Nc1ccc(C2(c3nc4ncc(Br)cc4[nH]3)CCC2)cn1)c1cccc(Cl)c1 [Ex. 1, N-(5-(1-(6-bromo-1H-imidazo[4,5-b]pyridin-2-yl)cyclobutyl)pyridin-2-yl)-3-chlorobenzamide] | 10.1 nM |
| N#Cc1cnc2nc(C3(c4ccc(NC(=O)c5cccc(Cl)c5)nc4)CCC3)[nH]c2c1 [Ex. 2, 3-Chloro-N-(5-(1-(6-cyano-1H-imidazo[4,5-b]pyridin-2-yl)cyclobutyl)pyridin-2-yl)benzamide] | 13.6 nM |
| O=C(Nc1ccc(C2(c3nc4ccccc4[nH]3)CCC2)cn1)c1cccc(Cl)c1 [Ex. 3, N-(5-(1-(1H-benzo[d]imidazol-2-yl)cyclobutyl)pyridin-2-yl)-3-chlorobenzamide] | 6.87 nM |
| N#Cc1cnc2nc(C3(c4ccc(NC(=O)c5cncc(F)c5)nc4)CCC3)[nH]c2c1 [Ex. 4, N-(5-(1-(6-cyano-1H-imidazo[4,5-b]pyridin-2-yl)cyclobutyl)pyridin-2-yl)-5-fluoronicotinamide] | 144 nM |
| N#Cc1cccc(C(=O)Nc2ccc(C3(c4nc5cc(C#N)ccc5[nH]4)CCC3)cn2)c1 [Ex. 5, 3-Cyano-N-(5-(1-(5-cyano-1H-benzo[d]imidazol-2-yl)cyclobutyl)pyridin-2-yl)benzamide] | 12.5 nM |
| N#Cc1cnc2[nH]c(C3(c4ccc(NC(=O)c5cccc(Cl)c5)nc4)CCC3)cc2c1 [Ex. 6, 3-Chloro-N-(5-(1-(5-cyano-1H-pyrrolo[2,3-b]pyridin-2-yl)cyclobutyl)pyridin-2-yl)benzamide] | 633 nM |
| Cc1cccc2nc(C3(c4ccc(NC(=O)c5cccc(Cl)c5)nc4)CCC3)[nH]c12 [Ex. 11, 3-chloro-N-{5-[1-(7-methyl-1H-benzimidazol-2-yl)cyclobutyl]pyridin-2-yl}benzamide] | 10.2 nM |
| CC(C)(C)c1ccc2nc(C3(c4ccc(NC(=O)c5cccc(Cl)c5)nc4)CCC3)[nH]c2c1 [Ex. 12, N-{5-[1-(6-tert-butyl-1H-benzimidazol-2-yl)cyclobutyl]pyridin-2-yl}-3-chlorobenzamide] | 433 nM |
| COc1ccc2nc(C3(c4ccc(NC(=O)c5cccc(Cl)c5)nc4)CCC3)[nH]c2c1 [Ex. 14, 3-chloro-N-{5-[1-(6-methoxy-1H-benzimidazol-2-yl)cyclobutyl]pyridin-2-yl}benzamide] | 5.62 nM |
| COc1cccc2[nH]c(C3(c4ccc(NC(=O)c5cccc(Cl)c5)nc4)CCC3)nc12 [Ex. 15, 3-chloro-N-{5-[1-(4-methoxy-1H-benzimidazol-2-yl)cyclobutyl]pyridin-2-yl}benzamide] | 10.1 nM |
| O=C1COc2cc3[nH]c(C4(c5ccc(NC(=O)c6cccc(Cl)c6)nc5)CCC4)nc3cc2N1 [Ex. 18, 3-chloro-N-{5-[1-(7-oxo-3,6,7,8-tetrahydroimidazo[4,5-g][1,4]benzoxazin-2-yl)cyclobutyl]pyridin-2-yl}benzamide] | 132 nM |
| O=C(Nc1ccc(C2(c3nc4cc(-n5cnnn5)ccc4[nH]3)CCC2)cn1)c1cccc(Cl)c1 [Ex. 20, 3-chloro-N-(5-{1-[5-(1H-tetrazol-1-yl)-1H-benzimidazol-2-yl]cyclobutyl}pyridin-2-yl)benzamide] | 262 nM |
| O=C(Nc1ccc(C2(c3nc4ccc(OC(F)(F)F)cc4[nH]3)CCC2)cn1)c1cccc(Cl)c1 [Ex. 22, 3-chloro-N-(5-{1-[6-(trifluoromethoxy)-1H-benzimidazol-2-yl]cyclobutyl}pyridin-2-yl)benzamide] | 14.1 nM |
| Cc1cc2nc(C3(c4ccc(NC(=O)c5cccc(Cl)c5)nc4)CCC3)[nH]c2cc1C [Ex. 26, 3-chloro-N-{5-[1-(5,6-dimethyl-1H-benzimidazol-2-yl)cyclobutyl]pyridin-2-yl}benzamide] | 9.66 nM |
| N#Cc1cccc(C(=O)Nc2ccc(C3(c4nc5cc(C#N)cnc5[nH]4)CCC3)cn2)c1 [Ex. 29, 3-cyano-N-{5-[1-(6-cyano-3H-imidazo[4,5-b]pyridin-2-yl)cyclobutyl]pyridin-2-yl}benzamide] | 46 nM |

Results, then the compound that gave them:

| IC50 | SMILES |
| --- | --- |
| 200 nM | O=C(Nc1ccc(C2(c3nc4ccccc4n3CCO)CCC2)cn1)c1cccc(Cl)c1 [Ex. 31, 3-Chloro-N-(5-(1-(1-(2-hydroxyethyl)-1H-benzo[d]imidazol-2-yl)cyclobutyl)pyridin-2-yl)benzamide] |
| 383 nM | COC(=O)c1cccc2nc(C3(c4ccc(NC(=O)c5cccc(C#N)c5)nc4)CCC3)[nH]c12 [Ex. 35, Methyl 2-(1-(6-(3-cyanobenzamido)pyridin-3-yl)cyclobutyl)-1H-benzo[d]imidazole-7-carboxylate] |
| 10000 nM | N#Cc1cccc(C(=O)Nc2ccc(C3(c4nc5cccc(C(=O)O)c5[nH]4)CCC3)cn2)c1 [Ex. 36, 2-(1-(6-(3-Cyanobenzamido)pyridin-3-yl)cyclobutyl)-1H-benzo[d]imidazole-7-carboxylic acid] |
| 121 nM | COC(c1ccc(NC(=O)c2cccc(C#N)c2)nc1)c1nc2cc(C(F)(F)F)cnc2[nH]1 (centres unmarked) [Ex. 39, 3-Cyano-N-(5-(methoxy(6-(trifluoromethyl)-3H-imidazo[4,5-b]pyridin-2-yl)methyl)pyridin-2-yl)benzamide] |
| 94.8 nM | CO[C@@H](c1ccc(NC(=O)c2cccc(C#N)c2)nc1)c1nc2cc(C(F)(F)F)cnc2[nH]1 [Ex. 40, (S)-3-cyano-N-(5-(methoxy(6-(trifluoromethyl)-3H-imidazo[4,5-b]pyridin-2-yl)methyl)pyridin-2-yl)benzamide] |
| 263 nM | CO[C@H](c1ccc(NC(=O)c2cccc(C#N)c2)nc1)c1nc2cc(C(F)(F)F)cnc2[nH]1 [Ex. 41, (R)-3-cyano-N-(5-(methoxy(6-(trifluoromethyl)-3H-imidazo[4,5-b]pyridin-2-yl)methyl)pyridin-2-yl)benzamide] |
| 5910 nM | N#Cc1cccc(C(=O)Nc2ccc(C(O)c3nc4cc(C(F)(F)F)cnc4[nH]3)cn2)c1 (centres unmarked) [Ex. 42, 3-Cyano-N-(5-(hydroxy(6-(trifluoromethyl)-3H-imidazo[4,5-b]pyridin-2-yl)methyl)pyridin-2-yl)benzamide] |
| 3860 nM | N#Cc1cccc(C(=O)Nc2ccc([C@H](O)c3nc4cc(C(F)(F)F)cnc4[nH]3)cn2)c1 [Ex. 43, (S)-3-cyano-N-(5-(hydroxy(6-(trifluoromethyl)-3H-imidazo[4,5-b]pyridin-2-yl)methyl)pyridin-2-yl)benzamide] |
| 6220 nM | N#Cc1cccc(C(=O)Nc2ccc([C@@H](O)c3nc4cc(C(F)(F)F)cnc4[nH]3)cn2)c1 [Ex. 44, (R)-3-cyano-N-(5-(hydroxy(6-(trifluoromethyl)-3H-imidazo[4,5-b]pyridin-2-yl)methyl)pyridin-2-yl)benzamide] |
| 99.7 nM | O=C(Nc1ccc(C2(c3nc4c([nH]3)CCCC4)CCC2)cn1)c1cccc(Cl)c1 [Ex. 48, 3-Chloro-N-(5-(1-(4,5,6,7-tetrahydro-1H-benzo[d]imidazol-2-yl)cyclobutyl)pyridin-2-yl)benzamide] |

Each compound was assayed against T1, IDO1 (assay: IDO1 Human Whole Blood Assay). Settings: LPS and IFNγ 100 ng/mL, 18 h, kynurenine by LC/MS/MS.
Type: cell-based
Protocol: IDO1 Human Whole Blood Assay
Compounds to be tested were serially diluted in ten 3-fold steps in DMSO starting from 10 mM. 3 μL of compound dilutions or DMSO alone were then dispensed from the dilution plate into a polypropylene 96-well assay plate containing 97 μL of RPMI medium using an Echo 555 acoustic liquid handler (Labcyte). LPS and IFNγ was prepared in RPMI medium to a 10× of final conc. (1000 ng/mL), final concentration is 100 ng/mL.
Human whole blood was drawn in sodium heparin coated tubes from healthy internal donors. 240 μL of blood was transferred to each of the wells of a v-bottom 96 well plate. 30 μL of compound was transferred from intermediate dilution plate, and incubated for 15 min. 30 μL from stimulants was then transferred to blood and mixed thoroughly. Plate was covered with breathable membrane and incubated at 37° C. for overnight (18 h).
On day 2, isotope labeled standard solutions of kunurenine and tryptophan was made in water at 10× concentration and 30 μL was added to the blood at […] concentration. The assay plates were centrifuged at 300×G for 10 min with no brake to separate plasma from red blood cells. 60 μL of plasma samples was removed without disturbing red blood cells. Plasma was diluted with RPMI in 1:1 ratio and proteins were precipitated out with two volumes of Acetonitrile. The plates were centrifuged at 4000×G for 60 min. 20 μL of supernatant was carefully transferred to a 384 well plate containing 40 μL of 0.1% formic acid in water and analyzed by LC/MS/MS.
LC/MS/MS analyses were performed using Thermo Fisher's LX4-TSQ Quantum Ultra system. This system consists of four Agilent binary high-performance liquid chromatography (HPLC) pumps and a TSQ Quantum Ultra triple quadrupole MS/MS instrument. For each sample, 5 μL were injected onto an Atlantis T3 column (2.1 mm×150 mm, 3 μm particle size) from Waters. The mobile phase gradient pumped at 0.8 mL/min was used to elute the analytes from the column at 25° C. The elution started at 0% B increasing linearly to 25% B at 6.5 min, holding at 25% for 1 min, re-equilibrating to 10 min. Mobile phase A consisted of 0.1% formic acid in water. Mobile phase B consisted of 0.1% of formic acid in acetonitrile. Data was acquired in positive mode using a HESI interface. The operational parameters for the TSQ Quantum Ultra instrument were a spray voltage of 4000 V, capillary temperature of 380° C., vaporizer temperature 400° C., shealth gas 60 arbitrary units, Aux gas 20 arbitrary units, tube lens 85 and collision gas 1.2 mTorr. SRM chromatograms of kynurenine (QI: 209.2>Q3:94.0) and internal standard (QI: 215.3>Q3:98.2) were collected for 90 sec. The peak area was integrated by Xcalibur Quan software. The ratios between the kynurenine generated in the reaction and 2D6-Kynurenine spiked-in internal standard were used to generate percentage inhibition and IC50 values. Compounds were titrated and IC50's were calculated by 4 parameter sigmoidal curve fitting formula.

| IC50 | SMILES |
| --- | --- |
| 159 nM | O=C(Nc1ccc(C2(c3nc4ncc(Br)cc4[nH]3)CCC2)cn1)c1cccc(Cl)c1 [Ex. 1, N-(5-(1-(6-bromo-1H-imidazo[4,5-b]pyridin-2-yl)cyclobutyl)pyridin-2-yl)-3-chlorobenzamide] |
| 387 nM | N#Cc1cnc2nc(C3(c4ccc(NC(=O)c5cccc(Cl)c5)nc4)CCC3)[nH]c2c1 [Ex. 2, 3-Chloro-N-(5-(1-(6-cyano-1H-imidazo[4,5-b]pyridin-2-yl)cyclobutyl)pyridin-2-yl)benzamide] |
| 429 nM | O=C(Nc1ccc(C2(c3nc4ccccc4[nH]3)CCC2)cn1)c1cccc(Cl)c1 [Ex. 3, N-(5-(1-(1H-benzo[d]imidazol-2-yl)cyclobutyl)pyridin-2-yl)-3-chlorobenzamide] |
| 864 nM | N#Cc1cccc(C(=O)Nc2ccc(C3(c4nc5cc(C#N)ccc5[nH]4)CCC3)cn2)c1 [Ex. 5, 3-Cyano-N-(5-(1-(5-cyano-1H-benzo[d]imidazol-2-yl)cyclobutyl)pyridin-2-yl)benzamide] |
